Experimental data published in PMC6759604 (Frontiers in Microbiology, 2019).

Tests used:
[1] = biological target: Vp HqsK (VP1876 HK; H-NOX-associated quorum sensing kinase) (Vibrio parahaemolyticus, UniProt Q87NJ2); conditions: 250 μM OMFP, pH 8.0, room temperature
[2] = biological target: Vibrio parahaemolyticus HqsK (VP1876) D499A (Vibrio parahaemolyticus) (UniProt Q87NJ2)

Compound	phosphatase assay, O-methylfluorescein release at 450 nm [1]	inhibition of HqsK autophosphorylation ([gamma-32P]-ATP, SDS-PAGE, autoradiography) by Fe(II)-NO H-NOX; 69.4 uM H-NOX, 5.3 uM HqsK D499A, purified proteins, room temperature, anaerobic [2] [%]
COc1ccc2c(c1)Oc1cc(OP(=O)(O)O)ccc1C21OC(=O)c2ccccc21 (centres unmarked) [3-O-methyl fluorescein phosphate]	Wild-type HqsK displays increasing OMF fluorescence over time, indicating Vp HqsK has phosphatase activity	
Vibrio parahaemolyticus H-NOX (VP1877) (from UniProt Q87NJ1 1-179) (natural protein)		75
